Data published in the supplement of paper PMC10307832.

Assays:
Assay in all cases: relative viability (nuclei count vs DMSO), 5 days (fraction); higher = more cells survive
PAC-1 + Foretinib = compound: C=CCc1cccc(/C=N/NC(=O)CN2CCN(Cc3ccccc3)CC2)c1O [PAC-1] + COc1cc2c(Oc3ccc(NC(=O)C4(C(=O)Nc5ccc(F)cc5)CC4)cc3F)ccnc2cc1OCCCN1CCOCC1 [Foretinib] (partner 0.25 µM)
Summary of the method: (§1)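 Five library-drug doses in √10 steps were combined with a fixed anchor-drug dose, or a single drug was given alone, by pin tool to lung cancer cell lines in 1536-well plates the day after seeding. Nuclei were stained and counted after 5 days. Relative viability is the nuclei count in treated wells over that in vehicle wells, taken as the median of duplicate plates.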

PAC-1 + Tozasertib = compound: C=CCc1cccc(/C=N/NC(=O)CN2CCN(Cc3ccccc3)CC2)c1O [PAC-1] + Cc1cc(Nc2cc(N3CCN(C)CC3)nc(Sc3ccc(NC(=O)C4CC4)cc3)n2)n[nH]1 [Tozasertib] (partner 0.1 µM)
Summary of the method: as §1

BMX-IN-1 + Pemetrexed = compound: C=CC(=O)Nc1cc(-n2c(=O)ccc3cnc4ccc(-c5ccc(NS(C)(=O)=O)cc5)cc4c32)ccc1C [BMX-IN-1] + Nc1nc2[nH]cc(CCc3ccc(C(=O)N[C@@H](CCC(=O)O)C(=O)O)cc3)c2c(=O)[nH]1 [Pemetrexed] (partner 0.2 µM)
Summary of the method: as §1

PAC-1 + Bortezomib = compound: C=CCc1cccc(/C=N/NC(=O)CN2CCN(Cc3ccccc3)CC2)c1O [PAC-1] + CC(C)C[C@H](NC(=O)[C@H](Cc1ccccc1)NC(=O)c1cnccn1)B(O)O [Bortezomib] (partner 0.002 µM)
Summary of the method: as §1

PAC-1 + Lapatinib = compound: C=CCc1cccc(/C=N/NC(=O)CN2CCN(Cc3ccccc3)CC2)c1O [PAC-1] + CS(=O)(=O)CCNCc1ccc(-c2ccc3ncnc(Nc4ccc(OCc5cccc(F)c5)c(Cl)c4)c3c2)o1 [Lapatinib] (partner 2 µM)
Summary of the method: as §1

Cell Line	relative viability (PAC-1 + Foretinib; first compound 0.02 µM)	relative viability (PAC-1 + Foretinib; first compound 0.06325 µM)	relative viability (PAC-1 + Foretinib; first compound 0.2 µM)	relative viability (PAC-1 + Foretinib; first compound 2 µM)	relative viability (PAC-1 + Tozasertib; first compound 0.02 µM)	relative viability (PAC-1 + Tozasertib; first compound 0.06325 µM)	relative viability (PAC-1 + Tozasertib; first compound 0.2 µM)	relative viability (PAC-1 + Tozasertib; first compound 2 µM)	relative viability (BMX-IN-1 + Pemetrexed; first compound 0.02 µM)	relative viability (BMX-IN-1 + Pemetrexed; first compound 0.2 µM)	relative viability (BMX-IN-1 + Pemetrexed; first compound 0.6325 µM)	relative viability (BMX-IN-1 + Pemetrexed; first compound 2 µM)	relative viability (PAC-1 + Bortezomib; first compound 0.02 µM)	relative viability (PAC-1 + Bortezomib; first compound 0.06325 µM)	relative viability (PAC-1 + Bortezomib; first compound 0.2 µM)	relative viability (PAC-1 + Bortezomib; first compound 2 µM)	relative viability (PAC-1 + Lapatinib; first compound 0.02 µM)	relative viability (PAC-1 + Lapatinib; first compound 0.06325 µM)	relative viability (PAC-1 + Lapatinib; first compound 0.2 µM)	relative viability (PAC-1 + Lapatinib; first compound 2 µM)
NCI-H1623	0.86	0.851	0.961	0.868	0.42	0.43	0.427	0.482												
HOP-62	1.1	1.13	1.1	1.17	0.346	0.395	0.349	0.355	0.267	0.364	0.342	0.223	0.976	0.986	0.836	0.673	0.876	0.987	1.03	1.22
NCI-H727	0.811	1.02	0.937	0.881	0.679	0.585	0.589	0.602					0.905	0.925	0.944	0.818	0.717	0.674	0.801	0.884
ChaGo-K-1	0.974	0.949	0.866	1.04	0.214	0.217	0.223	0.218	0.238	0.305	0.25	0.39	0.941	1.1	1.16	0.88				
BEN	0.68	0.651	0.589	0.678	0.621	0.541	0.511	0.466	0.701	0.768	0.866	0.708	0.742	0.77	0.797	0.725	0.629	0.604	0.671	0.75
NCI-H596	0.767	0.832	0.876	0.894	0.903	0.885	0.857	1.01	0.497	0.522	0.496	0.511	0.895	1.09	1.56	1.04	1.04	1.03	1.01	1.05
LU99A	0.91	0.854	0.818	0.774	0.309	0.254	0.247	0.286	0.198	0.226	0.183	0.141	1.1	1.11	1.07	1.05	1.11	1.05	0.918	0.977
NCI-H460	1.08	0.915	0.954	0.959	0.356	0.453	0.394	0.542	0.0558	0.0711	0.0676	0.071	1.3	1.02	0.859	1.14	1.01	1.01	0.916	0.942
NCI-H1648					0.6	0.606	0.464	0.488	0.733	0.721	0.875	0.765								
HCC-44					0.989	1.04	0.94	0.877	0.727	0.663	0.625	0.678	0.894	0.885	0.947	0.934	1.06	1.04	0.962	1.03
NCI-H647	1.17	1.08	1.29	1.31	0.336	0.403	0.256	0.242	0.162	0.169	0.15	0.142	0.771	0.924	0.765	0.924	0.851	1.05	0.866	0.934
Calu-6	0.883	0.89	0.952	0.944									1.07	1.09	1	1.1	1.06	1.08	1.01	1.18
201T	0.998	1.22	1.15	1.11	0.876	1	0.956	0.883	0.326	0.342	0.339	0.351	1.08	1.15	1.13	1.05	0.98	1.01	1.1	1.05
CAL-12T	1.15	1.1	0.978	1.08	0.265	0.315	0.327	0.293	1.27	1.36	1.37	1.15	0.95	1.09	1.1	0.925	0.604	0.788	0.665	0.599
HCC-78	0.522	0.591	0.634	0.589	0.486	0.399	0.496	0.342	0.971	0.989	0.935	0.913	0.387	0.496	0.434	0.483	0.753	0.822	0.657	1.05
LK-2	1.11	1.16	0.858	1.12	0.174	0.186	0.199	0.175	0.163	0.256	0.254	0.225					0.77	1.04	0.884	0.932
NCI-H522					0.598	0.582	0.62	0.469	1	1.03	1.12	1.14								
NCI-H322M	0.859	0.948	0.986	0.887	0.496	0.537	0.467	0.477	0.596	0.689	0.65	0.586	1.21	1.31	1.28	1.07	0.526	0.581	0.668	0.576
COR-L 105	0.991	1.16	1.25	1.31	0.318	0.323	0.383	0.374	1.2	1.07	1.3	1.04	0.71	0.695	0.757	0.792	0.294	0.361	0.413	0.406
LOU-NH91	0.919	0.931	0.982	0.898	0.624	0.7	0.645	0.679		0.406	0.392	0.366	0.452	0.475	0.469	0.526	0.723	0.82	0.749	0.782

Cell Line	relative viability (PAC-1 + Foretinib; first compound 0.02 µM)	relative viability (PAC-1 + Foretinib; first compound 0.06325 µM)	relative viability (PAC-1 + Foretinib; first compound 0.2 µM)	relative viability (PAC-1 + Foretinib; first compound 2 µM)	relative viability (PAC-1 + Tozasertib; first compound 0.02 µM)	relative viability (PAC-1 + Tozasertib; first compound 0.06325 µM)	relative viability (PAC-1 + Tozasertib; first compound 0.2 µM)	relative viability (PAC-1 + Tozasertib; first compound 2 µM)	relative viability (BMX-IN-1 + Pemetrexed; first compound 0.02 µM)	relative viability (BMX-IN-1 + Pemetrexed; first compound 0.2 µM)	relative viability (BMX-IN-1 + Pemetrexed; first compound 0.6325 µM)	relative viability (BMX-IN-1 + Pemetrexed; first compound 2 µM)	relative viability (PAC-1 + Bortezomib; first compound 0.02 µM)	relative viability (PAC-1 + Bortezomib; first compound 0.06325 µM)	relative viability (PAC-1 + Bortezomib; first compound 0.2 µM)	relative viability (PAC-1 + Bortezomib; first compound 2 µM)	relative viability (PAC-1 + Lapatinib; first compound 0.02 µM)	relative viability (PAC-1 + Lapatinib; first compound 0.06325 µM)	relative viability (PAC-1 + Lapatinib; first compound 0.2 µM)	relative viability (PAC-1 + Lapatinib; first compound 2 µM)
PC-3 [JPC-3]	1.06	1.02	0.996	0.994	0.883	0.859	0.842	0.857	0.933	1.28	1.44	1.04	0.83	0.789	0.774	0.877	0.416	0.474	0.447	0.465
NCI-H2228	0.903	0.862	0.888	0.786	0.228	0.258	0.263	0.234	0.408	0.331	0.396	0.325	0.897	1.26	1.03	1.51	1.26	1.25	1.02	1.23
LCLC-103H	0.734	0.785	0.713	0.689	0.56	0.492	0.494	0.463	0.444	0.546	0.467	0.418	1.17	1.1	1.1	1.18				
NCI-H1703	0.359	0.434	0.337	0.309									0.29	0.268	0.4	0.353	0.901	1.31	0.906	0.952
NCI-H2342	1.15	1.04	1.03	1.05	0.521	0.564	0.525	0.61	0.815	0.802	0.97	0.796								
ABC-1	0.991	1.19	1	1.01	0.144	0.186	0.197	0.195					0.336	0.371	0.258	0.319	1.35	1.22	1.18	1.07
NCI-H441	0.977	0.943	0.817	0.896	0.754	0.597	0.505	0.606	0.225	0.267	0.282	0.256	0.57	0.358	0.265	0.778				
NCI-H1793	0.651	0.504	0.646	0.559	0.316	0.338	0.439	0.238	0.945	1.01	0.966	0.806					0.48	0.753	0.62	0.652
NCI-H358	0.622	0.573	0.645	0.574	0.103	0.101	0.0952	0.109	0.167	0.182	0.176	0.175					0.473	0.525	0.477	0.388
NCI-H1792									0.903	1.28	0.885	1.17	0.982	1.01	0.947	0.896	0.978	0.91	0.923	0.934
SW 900	1.14	0.976	0.864	0.717	0.581	0.61	0.473	0.465	0.529	0.5	0.485	0.425								
NCI-H1299	1.14	1.04	1.04	1.06									1.02	0.99	0.975	0.993	0.981	0.967	0.975	0.949
EBC-1	0.105	0.0969	0.139	0.121									0.513	0.544	0.633	0.53	0.184	0.218	0.23	0.225
NCI-H1944	0.882	0.802	0.783	0.891	0.231	0.247	0.236	0.246	0.632	0.746	0.603	0.592					0.754	0.798	0.768	0.867
IA-LM	1.17	1.19	1.11	1.17									0.803	0.756	0.783	0.807	0.937	0.922	0.715	1.08
NCI-H1395	0.937	1.02	0.875	0.873	0.629	0.7	0.749	0.646	0.877	0.976	0.722	0.756					1.12	1	0.881	1.01
NCI-H1563	0.928	1	0.976	0.935					0.748	0.769	0.724	0.675	0.854	0.833	0.844	0.916	0.967	0.91	1.07	1.01
A549	0.952	0.964	1.04	1.01													0.935	0.804	1	1.06
NCI-H2170	1.08	0.961	0.969	1.01	0.693	0.776	0.805	0.712	0.273	0.285	0.319	0.243					0.247	0.258	0.255	0.264
